In patent US20100255045A1, “COMPOSITION FOR PHOTODYNAMIC SKIN TREATMENT” (priority 2007, published 2010):

Legend:
skin = experiment: Applicant's studies of chlorophyllin combined with aminolevulinic acid
Water-solubility = assay type: physicochemical; conditions: compared with chlorophyll

water-solubility (Water-solubility): good water-solubility
Substance: chlorophyllin
effectiveness of aminolevulinic acid (skin): promoting the effectiveness
protective role against side effects of aminolevulinic acid (erythema) (skin): preventing in particular the appearance of erythema
